Measured values: patent US20190077774A1, “PEROXISOME PROLIFERATOR-ACTIVATED RECEPTOR AGONISTS” (City of Hope, priority 2017, published 2019)

Key:
mouse PPARα = molecular target: T1, mouse PPARα (Mus musculus, UniProt P23204); assay: PPAR-GAL4 transactivation assay in transiently transfected CV-1 cells; type: cell-based; settings: PPAR-GAL4 chimeric receptor, read-out: EC50(nM) mPPARα
T1 construct: expressed in transfected cells; host or cells: CV-1 (monkey kidney) cells, transient transfection
T1 sequence (P23204 159-468): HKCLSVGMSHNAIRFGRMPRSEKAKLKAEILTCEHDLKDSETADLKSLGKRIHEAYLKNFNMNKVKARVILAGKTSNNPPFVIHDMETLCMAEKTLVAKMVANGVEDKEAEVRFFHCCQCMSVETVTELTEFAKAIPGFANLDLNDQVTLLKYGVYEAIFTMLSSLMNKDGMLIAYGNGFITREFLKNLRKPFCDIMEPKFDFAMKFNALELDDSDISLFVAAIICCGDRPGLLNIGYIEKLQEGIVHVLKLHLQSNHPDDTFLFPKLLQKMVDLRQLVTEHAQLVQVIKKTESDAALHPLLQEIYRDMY
Experimental: (§1) To assess the functional transcriptional activity of these compounds, cell-based assays using chimeric receptor Gal4 DNA-binding domain (DBD)-NR ligand binding domain cotransfection assay (LBDs of PPARα, PPARγ, and PPARδ) were performed. As an initial screen to determine the PPARα activity and selectivity, all compounds were evaluated for in vitro potency and selectivity by transfection testing, using CV-1 cells transfected with human and mouse PPARs. MH100×4 is a luciferase reporter with four copies of a GAL4 UASG response element, where GAL-I refers to the ligand-binding domain of the indicated receptor fused to the C-terminus of the GAL4 DNA-binding domain. Assays were performed using a Biomek automated workstation in which the genes for the nuclear receptor, as well as a plasmid containing a response element upstream of a luciferase cDNA, are transfected into CV-1 cells. Compounds were evaluated for their ability to activate human and mouse PPARs at […] test concentrations. […] The transactivation activity of the series of compounds (DY121-132, 10a-g) toward PPARα was expressed as EC50, which is the concentration of the test compound that affords half-maximum activity, as summarized in Table 1.
(§2) In vitro binding and transfection studies. As an initial screen to determine the PPARα, PPARγ, and PPARδ activity, all compounds were evaluated for in vitro potency and selectivity by transfection testing, using CV-1 cells transfected with human and mouse PPARs. MH100×4 is a luciferase reporter with four copies of a GAL4 USAG response element, where GAL-I refers to the ligand-binding domain of the indicated receptor fused to the C-terminus of the GAL4 DNA-binding domain. Assays were performed using a Biomek automated workstation in which the gene for the nuclear receptor, as well as a plasmid containing a response element upstream of a luciferase cDNA, are transfected into CV-1 cells. Compounds were evaluated for their ability to activate human PPARs at 1, 2.5, 3, and 5 uM test concentrations.
(§3) Compounds were screened for agonist activity towards PPAR-GAL4 chimeric receptors in transiently transfected CV-1 cells as described. EC50 is the concentration of test compound that gave 50% maximum efficacy.

human PPARα = molecular target: T2, human PPARα (Homo sapiens, UniProt Q07869); assay: as above; type: cell-based; settings: PPAR-GAL4 chimeric receptor, CV-1 cells; read-out: EC50(nM) hPPARα
T2 construct: expressed in transfected cells; host or cells: CV-1 (monkey kidney) cells, transient transfection
T2 sequence (Q07869 159-468): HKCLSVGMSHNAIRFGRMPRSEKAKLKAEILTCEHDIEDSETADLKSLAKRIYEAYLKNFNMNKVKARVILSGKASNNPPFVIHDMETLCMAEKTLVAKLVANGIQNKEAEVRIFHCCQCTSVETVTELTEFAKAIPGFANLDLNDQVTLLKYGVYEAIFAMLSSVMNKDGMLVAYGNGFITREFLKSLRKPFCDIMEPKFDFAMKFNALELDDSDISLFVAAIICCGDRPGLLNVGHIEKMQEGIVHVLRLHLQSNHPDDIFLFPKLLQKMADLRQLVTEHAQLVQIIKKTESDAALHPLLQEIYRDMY
Experimental: as §1
Cell-based reporter gene assays Cell based transactivation assays were performed in CV 1 cells as described (Forman, et al.). PPARα activity was assayed with a GAL4 reporter construct and fusion proteins containing the ligand binding domains of human PPARα, human PPARγ and human PPARδ linked to the DNA binding domain of yeast GAL4. Reporter constructs (300 ng/10^5 cells) and cytomegalovirus-driven expression vectors (20-50 ng/10^5 cells) were added as indicated along with CMX-b-gal (500 ng/10^5 cells) as an internal control. Cells were transiently transfected by Lipofectamine as described. Cells were incubated with DNA complexed liposomes for 2 h and subsequently treated for approximately 45 h with phenol red free DMEM FBS containing the indicated compounds. After exposure to ligand, the cells were harvested and assayed for luciferase and β-galactosidase activity. All points were assayed in triplicate and varied by less than 15%. Each experiment was repeated three or more times with similar results. Fold activation is reported.
as §2, §3

PPARα = molecular target: T3, PPARα (Homo sapiens, UniProt Q07869); assay: PPRE-luc reporter assay in CV-1 cells co-transfected with PPARα and RXRα expression plasmids; type: cell-based; settings: luciferase reporter
T3 construct: expressed in transfected cells; host or cells: CV-1 (monkey kidney) cells
T3 sequence (Q07869 1-468): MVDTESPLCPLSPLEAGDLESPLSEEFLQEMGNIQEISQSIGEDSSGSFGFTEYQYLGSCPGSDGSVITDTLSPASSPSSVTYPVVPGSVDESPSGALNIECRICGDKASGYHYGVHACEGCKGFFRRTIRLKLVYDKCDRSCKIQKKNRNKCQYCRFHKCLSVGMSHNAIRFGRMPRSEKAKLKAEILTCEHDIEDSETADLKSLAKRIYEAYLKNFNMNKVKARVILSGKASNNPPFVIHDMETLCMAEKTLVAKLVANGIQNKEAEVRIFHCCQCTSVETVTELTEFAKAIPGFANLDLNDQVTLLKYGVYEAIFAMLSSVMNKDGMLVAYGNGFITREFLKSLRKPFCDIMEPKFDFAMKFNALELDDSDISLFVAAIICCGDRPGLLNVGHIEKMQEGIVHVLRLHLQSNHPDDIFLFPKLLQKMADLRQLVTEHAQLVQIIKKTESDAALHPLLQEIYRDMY
T3 sequence (P19793 1-462 partner): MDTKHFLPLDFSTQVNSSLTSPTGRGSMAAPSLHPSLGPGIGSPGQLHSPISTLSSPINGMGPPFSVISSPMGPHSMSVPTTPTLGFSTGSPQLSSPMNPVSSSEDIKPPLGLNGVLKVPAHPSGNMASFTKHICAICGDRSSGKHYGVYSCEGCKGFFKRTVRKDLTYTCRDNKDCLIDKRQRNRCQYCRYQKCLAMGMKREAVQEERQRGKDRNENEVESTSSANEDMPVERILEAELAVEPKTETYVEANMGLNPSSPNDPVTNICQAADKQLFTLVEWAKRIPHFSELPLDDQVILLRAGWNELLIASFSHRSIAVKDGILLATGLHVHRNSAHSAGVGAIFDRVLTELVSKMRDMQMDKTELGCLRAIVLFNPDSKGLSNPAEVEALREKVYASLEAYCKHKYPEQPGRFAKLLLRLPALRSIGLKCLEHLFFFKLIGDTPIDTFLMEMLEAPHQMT
Experimental: In brief, monkey kidney CV-1 cells were co-transfected with appropriate reporter constructs and expression vectors. The fold activation of the reporter construct by ligand was determined at several concentrations of selected compounds (FIG. 4).^20 To examine the effect of DY-compound on PPARα-mediated PPRE transcriptional activation, a PPRE-luc reporter assay was conducted using a PPRE-driven luciferase reporter-gene (PPRE-luc) plasmid and PPARα and RXRα gene expression plasmids in CV-1 cells.

C57Bl/6J female mice = assay: Serum triglyceride and lipid effects in C57Bl/6J female mice; type: in vivo; settings: FIG. 7

Row | EC50 (mouse PPARα) [nM] | EC50 (human PPARα) [nM] | PPARα activation / PPRE-luc activity (PPARα) | SMILES | dose-response of triglyceride suppression (C57Bl/6J female mice)
1 | 3 | 1 | highest PPARα activation | Cc1ccc(Cn2nc(CCCc3ccc(OC(C)(C)C(=O)O)cc3)n(Cc3ccc(C)cc3)c2=O)cc1 [10e, 2-(4-{3-[4-Methyl-benzyl-1-(4-methyl-benzyl)-5-oxo-4,5-dihydro-1H[1,2,4]triazol-3-yl]-propyl}-phenoxy)-2-methyl-propionic acid] | 
2 | 20 | 2 |  | COc1cccc(Cn2c(CCCc3ccc(OC(C)(C)C(=O)O)cc3)nn(Cc3ccc(C)cc3)c2=O)c1 [10b, 2-(4-{3-[4-(3-Methoxy-benzyl)-1-(4-methyl-benzyl)-5-oxo-4,5-dihydro-1H[1,2,4]triazol-3-yl]-propyl}-phenoxy)-2-methyl-propionic acid] | 
3 | 10 | 1.5 |  | Cc1ccc(Cn2nc(CCCc3ccc(OC(C)(C)C(=O)O)cc3)n(Cc3ccc(F)cc3)c2=O)cc1 [10d, 2-(4-{3-[4-Fluoro-benzyl-1-(4-methyl-benzyl)-5-oxo-4,5-dihydro-1H[1,2,4]triazol-3-yl]-propyl}-phenoxy)-2-methyl-propionic acid] | 
4 | 10 | 1 | highest PPARα activation | Cc1ccc(Cn2nc(CCCc3ccc(OC(C)(C)C(=O)O)cc3)n(Cc3ccccc3Cl)c2=O)cc1 [10g, 2-(4-{3-[2-Chloro-benzyl-1-(4-methyl-benzyl)-5-oxo-4,5-dihydro-11H[1,2,4]triazol-3-yl]-propyl}-phenoxy)-2-methyl-propionic acid] | Dose-response suppression
5 | 20 | 12 |  | C=Cc1ccc(Cn2nc(CCCc3ccc(OC(C)(C)C(=O)O)cc3)n(Cc3ccc(C)cc3)c2=O)cc1 [10h] | 
6 | 30 | 3 |  | COc1cc(Cn2c(CCCc3ccc(OC(C)(C)C(=O)O)cc3)nn(Cc3ccc(C)cc3)c2=O)cc(OC)c1OC [10f, 2-(4-{3-[3,4,5-Trimethoxy-benzyl-1-(4-methyl-benzyl)-5-oxo-4,5-dihydro-1H[1,2,4]triazol-3-yl]-propyl}-phenoxy)-2-methyl-propionic acid] | Dose-response suppression
7 | 20 | 1.5 |  | Cc1ccc(Cn2nc(CCCc3ccc(OC(C)(C)C(=O)O)cc3)n(Cc3ccccc3)c2=O)cc1 [10c, 2-(4-{3-[4-Benzyl-1-(4-methyl-benzyl)-5-oxo-4,5-dihydro-1H[1,2,4]triazol-3-yl]-propyl}-phenoxy)-2-methyl-propionic acid] | 
